The target in this assay is T1, human GABA A receptor α5β3γ2 (Homo sapiens, UniProt P18507+P31644).
T1 construct: expressed in transfected cells; host or cells: HEK293 (transiently transfected), membranes
Kind of assay: [3H]flumazenil competition binding to HEK293 cell membranes expressing human GABA A α5β3γ2. The following applies: displacement of [3H]flumazenil (0.5 nM), human α5β3γ2 transiently transfected in HEK293, means of two determinations; read-out: Ki[nM] hα5. How it is done: Membrane Preparation and Binding Assay
The affinity of compounds at GABA A receptor subtypes was measured by competition for [3H]flumazenil (85 Ci/mmol; Roche) binding to HEK293 cells expressing rat (stably transfected) or human (transiently transfected) receptors of composition α1β3γ2, α2β3γ2, α3β3γ2 and α5β3γ2.
Cell pellets were suspended in Krebs-tris buffer (4.8 mM KCl, 1.2 mM CaCl2, 1.2 mM MgCl2, 120 mM NaCl, 15 mM Tris; pH 7.5; binding assay buffer), homogenized by polytron for ca. 20 sec on ice and centrifuged for 60 min at 4° C. (50000 g; Sorvall, rotor: SM24=20000 rpm). The cell pellets were resuspended in Krebs-tris buffer and homogenized by polytron for ca. 15 sec on ice. Protein was measured (Bradford method, Bio-Rad) and aliquots of 1 mL were prepared and stored at −80° C.
Radioligand binding assays were carried out in a volume of […] (96-well plates) which contained […] of cell membranes, [3H]flumazenil at a concentration of 1 nM for α1, α2, α3 subunits and 0.5 nM for a5 subunits and the test compound in the range of […]. Nonspecific binding was defined by 10^−5 M diazepam and typically represented less than 5% of the total binding. Assays were incubated to equilibrium for 1 hour at 4° C. and harvested onto GF/C uni-filters (Packard) by filtration using a Packard harvester and washing with ice-cold wash buffer (50 mM Tris; pH 7.5). After drying, filter-retained radioactivity was detected by liquid scintillation counting. Ki values were calculated using Excel-Fit (Microsoft) and are the means of two determinations.

`Cc1c[nH]nc1C#Cc1c(-c2ccccc2)noc1C` [Example 23, 5-Methyl-4-(4-methyl-1H-pyrazol-3-ylethynyl)-3-phenyl-isoxazole]: the Ki turned out to be 53 nM.

For the compound `Cc1onc(-c2ccccc2)c1C#Cc1ncc(-c2ccccc2)n1C` [Example 32, 5-Methyl-4-(1-methyl-5-phenyl-1H-imidazol-2-ylethynyl)-3-phenyl-isoxazole], the Ki came out at 28.4 nM.

With `Cc1onc(-c2ccccc2)c1C#Cc1nccn1C` [Example 21, 5-Methyl-4-(1-methyl-1H-imidazol-2-ylethynyl)-3-phenyl-isoxazole], the Ki is 26 nM.

On to `Cc1onc(-c2ccccc2)c1C#Cc1cncc(N)n1` [Example 46, 6-(5-Methyl-3-phenyl-isoxazol-4-ylethynyl)-pyrazin-2-ylamine], for which the Ki is 18.3 nM.

As for `Cc1onc(-c2ccccc2)c1C#Cc1cc(-c2ccc(F)cc2)n(C)n1` [Example 53, 4-[5-(4-Fluoro-phenyl)-1-methyl-1H-pyrazol-3-ylethynyl]-5-methyl-3-phenyl-isoxazole], the Ki is 52.6 nM.

With `Cc1onc(-c2ccccc2)c1C#Cc1cnccn1` [Example 34, 2-(5-Methyl-3-phenyl-isoxazol-4-ylethynyl)-pyrazine], the Ki amounted to 59.2 nM.

With `Cc1onc(-c2ccccc2)c1C#Cc1cnc(N)cn1` [Example 47, 5-(5-Methyl-3-phenyl-isoxazol-4-ylethynyl)-pyrazin-2-ylamine], the Ki turned out to be 37.2 nM.

Take `Cc1cccc(C#Cc2c(-c3ccccc3)noc2C)n1` [Example 35, 2-Methyl-6-(5-methyl-3-phenyl-isoxazol-4-ylethynyl)-pyridine]: the Ki stood at 39.3 nM.

In the case of `COC(=O)c1ccccc1C#Cc1c(-c2ccccc2)noc1C` [Example 12, 2-(5-Methyl-3-phenyl-isoxazol-4-ylethynyl)-benzoic acid methyl ester], the Ki is 87.3 nM.

`Cc1onc(-c2ccccc2)c1C#Cc1ncc(C)n1-c1ccccc1` [Example 33, 5-Methyl-4-(5-methyl-1-phenyl-1H-imidazol-2-ylethynyl)-3-phenyl-isoxazole]: the inhibition constant (Ki) was 23.7 nM.

For `Cc1onc(-c2ccccc2)c1C#Cc1ccccn1` [Example 1, 2-(5-Methyl-3-phenyl-isoxazol-4-ylethynyl)-pyridine], the Ki is 47.9 nM.

Turning to `Cc1onc(-c2ccccc2)c1C#Cc1nc(C)n(-c2cc(F)cc(F)c2)c1C` [Example 56, 4-[1-(3,5-Difluoro-phenyl)-2,5-dimethyl-1H-imidazol-4-ylethynyl]-5-methyl-3-phenyl-isoxazole], the Ki was determined as 23.5 nM.

In the case of `COC(=O)c1csc(C#Cc2c(-c3ccccc3)noc2C)n1` [Example 61, 2-(5-Methyl-3-phenyl-isoxazol-4-ylethynyl)-thiazole-4-carboxylic acid methyl ester], the Ki turned out to be 31.9 nM.

Take `Cc1ccnc(C#Cc2c(-c3ccccc3)noc2C)c1` [Example 37, 4-Methyl-2-(5-methyl-3-phenyl-isoxazol-4-ylethynyl)-pyridine]: the Ki came to 48 nM.

In the case of `Cc1ccc(C#Cc2c(-c3ccccc3)noc2C)nc1` [Example 31, 5-Methyl-2-(5-methyl-3-phenyl-isoxazol-4-ylethynyl)-pyridine], the Ki was 45.5 nM.

For the compound `COC(=O)c1ccnc(C#Cc2c(-c3ccccc3)noc2C)c1` [Example 17, 2-(5-Methyl-3-phenyl-isoxazol-4-ylethynyl)-isonicotinic acid methyl ester], the Ki worked out at 74.9 nM.

In the case of `Cc1cnc(C)c(C#Cc2c(-c3ccccc3)noc2C)n1` [Example 26, 2,5-Dimethyl-3-(5-methyl-3-phenyl-isoxazol-4-ylethynyl)-pyrazine], the Ki was 10.4 nM.

In the case of `Cc1cccnc1C#Cc1c(-c2ccccc2)noc1C` [Example 39, 3-Methyl-2-(5-methyl-3-phenyl-isoxazol-4-ylethynyl)-pyridine], the inhibitory constant (Ki) worked out at 28.9 nM.

With `Cc1onc(-c2ccccc2)c1C#Cc1nc2n(c1C)CCCC2` [Example 52, 3-Methyl-2-(5-methyl-3-phenyl-isoxazol-4-ylethynyl)-5,6,7,8-tetrahydro-imidazo[1,2-a]pyridine], the Ki stood at 15.5 nM.

For `Cc1onc(-c2ccccc2)c1C#Cc1ccccc1N` [Example 14, 2-(5-Methyl-3-phenyl-isoxazol-4-ylethynyl)-phenylamine], the Ki was found to be 38.4 nM.

With `Cc1onc(-c2ccccc2)c1C#Cc1cc(C(=O)NCC2CC2)ccn1` [Example 27, N-Cyclopropylmethyl-2-(5-methyl-3-phenyl-isoxazol-4-ylethynyl)-isonicotinamide], the Ki stood at 39.8 nM.

On to `CCOC(=O)c1nc(C)sc1C#Cc1c(-c2ccccc2)noc1C` [Example 24, 2-Methyl-5-(5-methyl-3-phenyl-isoxazol-4-ylethynyl)-thiazole-4-carboxylic acid ethyl ester], for which the Ki is 85.2 nM.

Turning to `Cc1onc(-c2ccccc2)c1C#Cc1cnc2ccccc2n1` [Example 45, 2-(5-Methyl-3-phenyl-isoxazol-4-ylethynyl)-quinoxaline], the Ki turned out to be 84.4 nM.

Turning to `CCOC(=O)c1c(C)nc(C#Cc2c(-c3ccccc3)noc2C)n1C` [Example 50, 3,5-Dimethyl-2-(5-methyl-3-phenyl-isoxazol-4-ylethynyl)-3H-imidazole-4-carboxylic acid ethyl ester], the Ki came out at 7.3 nM.

For `Cc1onc(-c2ccccc2)c1C#Cc1ccc(N)cn1` [Example 41, 6-(5-Methyl-3-phenyl-isoxazol-4-ylethynyl)-pyridin-3-ylamine], the Ki came out at 55.7 nM.

In the case of `CCc1ccnc(C#Cc2c(-c3ccccc3)noc2C)c1` [Example 44, 4-Ethyl-2-(5-methyl-3-phenyl-isoxazol-4-ylethynyl)-pyridine], the Ki was found to be 38.9 nM.

Regarding `Cc1onc(-c2ccccc2)c1C#Cc1nc(C)n(-c2ccc(F)cc2)c1C` [Example 57, 4-[1-(4-Fluoro-phenyl)-2,5-dimethyl-1H-imidazol-4-ylethynyl]-5-methyl-3-phenyl-isoxazole], the inhibition constant (Ki) was 39.1 nM.

`Cc1onc(-c2ccc(Cl)cc2)c1C#Cc1ccccn1` [Example 59, 2-[3-(4-Chloro-phenyl)-5-methyl-isoxazol-4-ylethynyl]-pyridine]: the Ki is 54.5 nM.

For `Cc1csc(NC(=O)c2ccnc(C#Cc3c(-c4ccccc4)noc3C)c2)n1` [Example 29, 2-(5-Methyl-3-phenyl-isoxazol-4-ylethynyl)-N-(4-methyl-thiazol-2-yl)-isonicotinamide], the inhibition constant (Ki) came out at 90.1 nM.

Take `Cc1onc(-c2ccccc2)c1C#Cc1cccc(C(=O)NC2CCOCC2)c1` [Example 8, 3-(5-Methyl-3-phenyl-isoxazol-4-ylethynyl)-N-(tetrahydro-pyran-4-yl)-benzamide]: the Ki stood at 91.6 nM.

With `Cc1onc(-c2ccccc2)c1C#Cc1cc(C(F)(F)F)ccn1` [Example 38, 2-(5-Methyl-3-phenyl-isoxazol-4-ylethynyl)-4-trifluoromethyl-pyridine], the inhibition constant Ki amounted to 37 nM.

As for `Cc1onc(-c2ccccc2)c1C#Cc1cc(C(=O)NC2CCOCC2)ccn1` [Example 28, 2-(5-Methyl-3-phenyl-isoxazol-4-ylethynyl)-N-(tetrahydro-pyran-4-yl)-isonicotinamide], the Ki worked out at 20.7 nM.

Turning to `Cc1onc(-c2ccccc2)c1C#Cc1cccc(Cl)n1` [Example 30, 2-Chloro-6-(5-methyl-3-phenyl-isoxazol-4-ylethynyl)-pyridine], the Ki was determined as 71.9 nM.

Turning to `Cc1ncc(C#Cc2c(-c3ccccc3)noc2C)[nH]1` [Example 22, 5-Methyl-4-(2-methyl-3H-imidazol-4-ylethynyl)-3-phenyl-isoxazole], the Ki is 77.2 nM.

In the case of `Cc1ccc(C#Cc2c(-c3ccccc3)noc2C)nn1` [Example 19, 3-Methyl-6-(5-methyl-3-phenyl-isoxazol-4-ylethynyl)-pyridazine], the Ki stood at 26.6 nM.

Regarding `Cc1onc(-c2ccccc2)c1C#Cc1ccc(Cl)cn1` [Example 42, 5-Chloro-2-(5-methyl-3-phenyl-isoxazol-4-ylethynyl)-pyridine], the Ki amounted to 81.7 nM.

Values taken from patent publication US7544704B2, “Aryl-4-ethynyl-isoxazole derivatives” (Hoffmann-La Roche Inc., priority 2006, dated 2009).
